From US20210007356A1, “IMIDE DERIVATIVE AND FUNGICIDE CONTAINING SAID DERIVATIVE AS ACTIVE INGREDIENT” (HOKKO CHEMICAL INDUSTRY CO., LTD., priority 2018, published 2021)
Read-outs that look alike come from different tables or passages of the source.

Assays:
[1] = tested on: rice sheath blight fungus (Thanatephorus cucumeris); test: Test Example 10: control effect against rice sheath blight by water surface application (flowable formulation); conditions: flowable 1,000 ppm, 1 mL dripped in paddy water, inoculated after 1 week, 7 days after inoculation
[2] = tested on: rice blast fungus (Pyricularia grisea); format: in vivo; conditions: 5 g of granule on nursery box, paddy rice; inoculated after 3 weeks; 7 days after inoculation
[3] = tested on: rice blast fungus (Pyricularia grisea); format: in vivo; conditions: flowable 1,000 ppm, 1 mL dripped in paddy water, inoculated after 1 week, 7 days after inoculation
[4] = tested on: rice sheath blight fungus (Thanatephorus cucumeris); test: Test Example 6: control effect against rice sheath blight by box treatment (flowable formulation); conditions: flowable 5,000 ppm, 50 mL irrigation of nursery box, paddy rice; inoculated after 3 weeks; 7 days after inoculation
[5] = tested on: rice blast fungus (Pyricularia grisea); format: in vivo; conditions: flowable 5,000 ppm, 50 mL irrigation of nursery box, paddy rice; inoculated after 3 weeks; 7 days after inoculation
[6] = tested on: rice blast fungus (Pyricularia grisea); format: in vivo; conditions: flowable diluted to 100 ppm, 10 mL per pot foliage spray on paddy rice; inoculated day after; 7 days after inoculation
[7] = tested on: rice sheath blight fungus (Thanatephorus cucumeris); test: Test Example 8: control effect against rice sheath blight by box treatment (granule); conditions: 5 g of granule on nursery box, paddy rice; inoculated after 3 weeks; 7 days after inoculation
[8] = tested on: barley powdery mildew fungus (Erysiphe graminis); test: Test Example 2: control effect against barley powdery mildew by foliage application; format: in vivo; conditions: wettable powder diluted to 100 ppm, 10 mL per pot foliage spray on barley; inoculated day after; 7 days after inoculation

| SMILES | evaluation value of control effect (from control value, lesion height) [1] | evaluation value of control effect (from control value, number of lesions) [2] | evaluation value of control effect (from control value, number of lesions) [3] | evaluation value of control effect (from control value, lesion height) [4] | evaluation value of control effect (from control value, number of lesions) [5] | evaluation value of control effect (from control value, number of lesions) [6] | evaluation value of control effect (from control value, lesion height) [7] | evaluation value of control effect (from control value, lesion area percentage) [8] | melting point |
| --- | --- | --- | --- | --- | --- | --- | --- | --- | --- |
| Cc1nc(C(F)F)c(C(=O)N(C(=O)c2sc(C)nc2C(F)(F)F)c2ccccc2C(C)CC(C)C)s1 (stereo not shown) [7-226] | 5 | 5 | 5 | 5 | 5 | 4 | 5 | 4 |  |
| Cc1nc(C(F)F)c(C(=O)N(C(=O)c2sc(C)nc2C(F)F)c2ccccc2C(C)CC(C)C)s1 (stereo not shown) [7-238, 4-Difluoromethyl-N-{4-(difluoromethyl)-2-methyl-thiazole-5-carbonyl}-N-{2-(1,3-dimethylbutyl)phenyl}-2-methyl-thiazole-5-carboxamide] | 5 | 5 | 5 | 5 | 5 | 4 | 5 | 5 |  |
| Cc1nc(C(F)F)c(C(=O)N(C(=O)c2scnc2C(F)F)c2ccccc2C(C)CC(C)C)s1 (stereo not shown) [7-262] | 5 | 5 | 5 | 5 | 5 | 4 | 5 | 4 |  |
| CC(C)CC(C)c1ccccc1N(C(=O)c1cccnc1C(F)F)C(=O)c1snc(Cl)c1Cl (stereo not shown) [13-2, 3,4-Dichloro-N-{2-(difluoromethyl)pyridine-3-carbonyl}-N-{2-(1,3-dimethylbutyl)phenyl}isothiazole-5-carboxamide] | 5 | 5 | 5 | 5 | 5 | 4 | 5 | 5 | 111 to 115.6 °C |
| CC(C)CC(C)c1ccccc1N(C(=O)c1cccnc1Br)C(=O)c1snc(Cl)c1Cl (stereo not shown) [13-54] | 5 | 5 | 5 | 5 | 5 | 4 | 5 | 4 |  |
| O=C(c1nccnc1C(F)(F)F)N(c1ccccc1-c1ccc(F)c(F)c1)c1snc(Cl)c1Cl [13-55, N-(3,4-Dichloroisothiazol-5-yl)-N-(3′,4′-difluorobiphen-2-yl)-3-(trifluoromethyl)pyrazine-2-carboxamide] | 5 | 5 | 5 | 5 | 5 | 4 | 5 | 5 | 136.1 to 139.2 °C |
| CC(C)CC(C)c1ccccc1N(C(=O)c1cc(F)nc(F)c1)C(=O)c1cccnc1C(F)F (stereo not shown) [13-58] | 5 | 5 | 5 | 5 | 5 | 4 | 5 | 5 |  |
| CC1CC(C)(C)c2cccc(N(C(=O)c3cn(C)nc3C(F)F)C(=O)c3snc(Cl)c3Cl)c21 (stereo not shown) [25-4, 3,4-Dichloro-N-{3-(difluoromethyl)-1-methyl-pyrazole-4-carbonyl)-N-(2,3-dihydro-1,1,3-trimethyl-1H-inden-4-yl)-isothiazole-5-carboxamide] | 5 |  |  | 5 |  |  | 5 | 4 | 154.3 to 155.6 °C |
| Cc1nnsc1C(=O)N(C(=O)c1cn(C)nc1C(F)F)c1cccc2c1C(C)OC2(C)C (stereo not shown) [25-56] | 5 | 5 | 5 | 5 | 5 | 4 | 5 | 4 |  |
| CC1OC(C)(C)c2cccc(N(C(=O)c3cn(C)nc3C(F)F)C(=O)c3snnc3C(F)F)c21 (stereo not shown) [25-68] | 5 | 5 | 5 | 5 | 5 | 4 | 5 | 4 |  |
| CC1OC(C)(C)c2cccc(N(C(=O)c3cn(C)nc3C(F)F)C(=O)c3scnc3C(F)F)c21 (stereo not shown) [25-110] | 5 | 5 | 5 | 5 | 5 | 4 | 5 | 4 |  |
| Cc1nn(C)c(Cl)c1C(=O)N(C(=O)c1snc(Cl)c1Cl)c1cccc2c1C(C)OC2(C)C (stereo not shown) [25-115, 3,4-Dichloro-N-(5-chloro-1,3-dimethyl-pyrazole-4-carbonyl)-N-(1,3-dihydro-1,1,3-trimethylisobenzofuran-4-yl)-isothiazole-5-carboxamide] | 5 |  |  | 5 |  | 4 | 5 | 4 | 165.5 to 170.3 °C |
| Cc1nc(C(F)F)c(C(=O)N(C(=O)c2snnc2C)c2cccc3c2C(C)OC3(C)C)s1 (stereo not shown) [26-50] | 5 | 5 | 5 | 5 | 5 | 4 | 5 | 4 |  |
| Cc1nc(C(F)F)c(C(=O)N(C(=O)c2scnc2C(F)F)c2cccc3c2C(C)CC3(C)C)s1 (stereo not shown) [26-85] | 5 | 5 | 5 | 5 | 5 | 4 | 5 | 5 |  |
